Experimental data taken from PubChem BioAssay (NCI).
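How tested: cells in 96-well plates exposed to compound for 48 hours at five concentrations. The concentration for full growth arrest is given as TGI.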

Tests used:
Test in all cases: growth of human tumour cells (NCI), 48 h
U251 CNS = test system: U251 CNS
DU-145 prostate = test system: DU-145 prostate
MOLT-4 leukemia = test system: MOLT-4 leukemia
EKVX NSCLC = test system: EKVX NSCLC
COLO 205 colon = test system: COLO 205 colon
A498 renal = test system: A498 renal
NCI-H460 lung = test system: NCI-H460 lung
UACC-62 melanoma = test system: UACC-62 melanoma
OVCAR-4 ovarian = test system: OVCAR-4 ovarian
A549 NSCLC = test system: A549 NSCLC
HCT-116 colon = test system: HCT-116 colon
SW-620 colon = test system: SW-620 colon
T-47D breast = test system: T-47D breast
CCRF-CEM leukemia = test system: CCRF-CEM leukemia
786-0 renal = test system: 786-0 renal
OVCAR-5 ovarian = test system: OVCAR-5 ovarian
RXF 393 renal = test system: RXF 393 renal
HCC-2998 colon = test system: HCC-2998 colon
RPMI-8226 leukemia = test system: RPMI-8226 leukemia
HT29 colon = test system: HT29 colon
OVCAR-8 ovarian = test system: OVCAR-8 ovarian
MCF7 breast = test system: MCF7 breast
UO-31 renal = test system: UO-31 renal
SK-MEL-28 melanoma = test system: SK-MEL-28 melanoma
SF-295 CNS = test system: SF-295 CNS
K-562 leukemia = test system: K-562 leukemia
SF-539 CNS = test system: SF-539 CNS
NCI-H226 lung = test system: NCI-H226 lung
SN12C renal = test system: SN12C renal
HOP-62 NSCLC = test system: HOP-62 NSCLC
NCI-H522 lung = test system: NCI-H522 lung
KM12 colon = test system: KM12 colon
LOX IMVI melanoma = test system: LOX IMVI melanoma
HOP-92 NSCLC = test system: HOP-92 NSCLC
UACC-257 melanoma = test system: UACC-257 melanoma
SK-MEL-5 melanoma = test system: SK-MEL-5 melanoma
SK-MEL-2 melanoma = test system: SK-MEL-2 melanoma
M14 melanoma = test system: M14 melanoma
SR leukemia = test system: SR leukemia
HCT-15 colon = test system: HCT-15 colon
NCI/ADR-RES ovarian = test system: NCI/ADR-RES ovarian
SF-268 CNS = test system: SF-268 CNS
SK-OV-3 ovarian = test system: SK-OV-3 ovarian
HL-60(TB) leukemia = test system: HL-60(TB) leukemia
SNB-19 CNS = test system: SNB-19 CNS
MALME-3M melanoma = test system: MALME-3M melanoma
PC-3 prostate = test system: PC-3 prostate
IGROV1 ovarian = test system: IGROV1 ovarian
OVCAR-3 ovarian = test system: OVCAR-3 ovarian
HS 578T breast = test system: HS 578T breast
TK-10 renal = test system: TK-10 renal
ACHN renal = test system: ACHN renal
MDA-N = test system: MDA-N
MDA-MB-231 breast = test system: MDA-MB-231 breast
SNB-75 CNS = test system: SNB-75 CNS
MDA-MB-435 = test system: MDA-MB-435
CAKI-1 renal = test system: CAKI-1 renal
NCI-H23 lung = test system: NCI-H23 lung
BT-549 breast = test system: BT-549 breast

COC1(CC[C@@H](C)COC2OC(CO)C(O)C(O)C2O)OC2C[C@H]3[C@@H]4CC[C@H]5C[C@@H](OC6OC(CO)C(OC7OC(CO)C(O)C(O)C7O)C(O)C6OC6OC(C)C(O)C(O)C6O)[C@H](O)C[C@]5(C)[C@H]4CC[C@]3(C)C2[C@@H]1C (stereo partly specified)
TGI (U251 CNS): 3.49 µM
TGI (DU-145 prostate): 3.92 µM
TGI (MOLT-4 leukemia): 8.14 µM
TGI (EKVX NSCLC): 4.52 µM
TGI (COLO 205 colon): 6.69 µM
TGI (A498 renal): 3.38 µM
TGI (NCI-H460 lung): 9.43 µM
TGI (UACC-62 melanoma): 3.45 µM
TGI (OVCAR-4 ovarian): 3.96 µM
TGI (A549 NSCLC): 3.83 µM
TGI (HCT-116 colon): 3.67 µM
TGI (SW-620 colon): 4.66 µM
TGI (T-47D breast): 9.01 µM
TGI (CCRF-CEM leukemia): 3.9 µM
TGI (786-0 renal): 4.04 µM
TGI (OVCAR-5 ovarian): 4.57 µM
TGI (RXF 393 renal): 3.85 µM
TGI (HCC-2998 colon): 3.24 µM
TGI (RPMI-8226 leukemia): 4.58 µM
TGI (HT29 colon): 4.99 µM
TGI (OVCAR-8 ovarian): 3.75 µM
TGI (MCF7 breast): 7.84 µM
TGI (UO-31 renal): 3.31 µM
TGI (SK-MEL-28 melanoma): 3.37 µM
TGI (SF-295 CNS): 3.28 µM
TGI (K-562 leukemia): 7.81 µM
TGI (SF-539 CNS): 3.34 µM
TGI (NCI-H226 lung): 4.52 µM
TGI (SN12C renal): 3.42 µM
TGI (HOP-62 NSCLC): 3.69 µM
TGI (NCI-H522 lung): 4.63 µM
TGI (KM12 colon): 5.02 µM
TGI (LOX IMVI melanoma): 3.22 µM
TGI (HOP-92 NSCLC): 12.8 µM
TGI (UACC-257 melanoma): 3.5 µM
TGI (SK-MEL-5 melanoma): 3.36 µM
TGI (SK-MEL-2 melanoma): 3.9 µM
TGI (M14 melanoma): 3.36 µM
TGI (SR leukemia): 16.8 µM
TGI (HCT-15 colon): > 22.8 µM
TGI (NCI/ADR-RES ovarian): > 20.6 µM
TGI (SF-268 CNS): 3.99 µM
TGI (SK-OV-3 ovarian): 3.28 µM
TGI (HL-60(TB) leukemia): 5.38 µM
TGI (SNB-19 CNS): 3.55 µM
TGI (MALME-3M melanoma): 3.33 µM
TGI (PC-3 prostate): 3.45 µM
TGI (IGROV1 ovarian): 3.19 µM
TGI (OVCAR-3 ovarian): 3.3 µM
TGI (HS 578T breast): 7.25 µM
TGI (TK-10 renal): 3.82 µM
TGI (ACHN renal): 3.33 µM
TGI (MDA-N): 4.55 µM
TGI (MDA-MB-231 breast): 3.66 µM
TGI (SNB-75 CNS): 3.49 µM
TGI (MDA-MB-435): 3.5 µM
TGI (CAKI-1 renal): 4.29 µM

CC(Nc1ccc(Cl)cc1)c1ccncc1 (stereo unspecified)
TGI (U251 CNS): > 100 µM
TGI (DU-145 prostate): > 100 µM
TGI (MOLT-4 leukemia): > 100 µM
TGI (EKVX NSCLC): > 100 µM
TGI (COLO 205 colon): > 100 µM
TGI (A498 renal): > 100 µM
TGI (NCI-H460 lung): > 100 µM
TGI (OVCAR-4 ovarian): > 100 µM
TGI (A549 NSCLC): > 100 µM
TGI (HCT-116 colon): > 100 µM
TGI (NCI-H23 lung): > 100 µM
TGI (SW-620 colon): > 100 µM
TGI (BT-549 breast): > 100 µM
TGI (T-47D breast): > 100 µM
TGI (CCRF-CEM leukemia): > 100 µM
TGI (786-0 renal): > 100 µM
TGI (OVCAR-5 ovarian): > 100 µM
TGI (RXF 393 renal): > 100 µM
TGI (HCC-2998 colon): > 100 µM
TGI (RPMI-8226 leukemia): 98.3 µM
TGI (HT29 colon): > 100 µM
TGI (OVCAR-8 ovarian): > 100 µM
TGI (MCF7 breast): > 100 µM
TGI (UO-31 renal): > 100 µM
TGI (SK-MEL-28 melanoma): > 100 µM
TGI (SF-295 CNS): > 100 µM
TGI (K-562 leukemia): > 100 µM
TGI (SF-539 CNS): > 100 µM
TGI (NCI-H226 lung): > 100 µM
TGI (SN12C renal): > 100 µM
TGI (HOP-62 NSCLC): > 100 µM
TGI (NCI-H522 lung): > 100 µM
TGI (KM12 colon): > 100 µM
TGI (LOX IMVI melanoma): > 100 µM
TGI (UACC-257 melanoma): > 100 µM
TGI (SK-MEL-5 melanoma): > 100 µM
TGI (SK-MEL-2 melanoma): > 100 µM
TGI (M14 melanoma): > 100 µM
TGI (HCT-15 colon): > 100 µM
TGI (NCI/ADR-RES ovarian): > 100 µM
TGI (SF-268 CNS): > 100 µM
TGI (SK-OV-3 ovarian): 11.8 µM
TGI (SNB-19 CNS): > 100 µM
TGI (MALME-3M melanoma): > 100 µM
TGI (PC-3 prostate): > 100 µM
TGI (IGROV1 ovarian): > 100 µM
TGI (OVCAR-3 ovarian): > 100 µM
TGI (HS 578T breast): > 100 µM
TGI (TK-10 renal): > 100 µM
TGI (ACHN renal): > 100 µM
TGI (MDA-N): > 100 µM
TGI (SNB-75 CNS): > 100 µM
TGI (MDA-MB-435): > 100 µM
TGI (CAKI-1 renal): > 100 µM
